Source: US5912352A, “Intermediates for the preparation of peptide analogues” (Novartis Finance Corporation, priority 1996, dated 1999)

Tests used:
HIV-1-protease = target: T1, HIV-1-protease (Human immunodeficiency virus type 1 group M subtype B, UniProt P04585); assay: Inhibition of the proteolytic activity of HIV-1-protease (icosapeptide substrate, HPLC); assay type: biochemical; conditions: icosapeptide RRSNQVSQNYPIVQNIQGRR 122 μM, 20 mM MES buffer pH 6.0, one hour at 37° C.; read-out: IC50 (concentration at which half the maximum inhibition of HIV-1-protease is found)
T1 construct: made in house
Protocol: In that procedure the inhibition of the action of HIV-1- protease (preparation: see S. Billich et al., J. Biol. Chem. 263 (34), 17905-17908 (1990)) is measured in the presence of the icosapeptide […] (a synthetic substrate of HIV-1-protease, prepared by peptide synthesis in accordance with known procedures (see J. Schneider et al., Cell 54, 363-368 (1988)), which contains as substrate analogue one of the cleavage sites of the gag-precursor protein (natural substrate of HIV-1-protease). That substrate and its cleavage products are analysed by high performance liquid chromatography (HPLC).
The test compound is dissolved in dimethyl sulfoxide. The enzymatic test is carried out by adding suitable dilutions of the inhibitor in 20 mM β-morpholinoethanesulfonic acid (MES) buffer pH 6.0 to the test mixture. That mixture consists of the above-mentioned icosapeptide (122 μM) in 20 mM MES buffer pH 6.0. 100 μl are used per test batch. The reaction is started by the addition of […] of HIV-1-protease solution and is stopped after one hour's incubation at 37° C. by the addition of 10 μl of 0.3M HClO4. After centrifugation of the sample at 10000×g for 5 minutes, 20 μl of the resulting supernatant are applied to a 125×4.6 mm Nucleosil® Cl8-5 μ HPLC column (reversed phase material supplied by Macherey & Nagel, Duren, FRG, based on silica gel that has been charged with C18 alkyl chains). The uncleaved icosapeptide and its cleavage products are eluted from the column by means of the following gradient: 100% eluant 1→50% eluant 1+50% eluant 2 (eluant 1:10% acetonitrile, 90% H2 O, 0.1% trifluoroacetic acid (TFA); eluant 2:75% acetonitrile, 25% H2 O, 0.08% TFA) over 15 minutes, throughflow rate 1 ml/min. The quantification of the eluted peptide fragments is carried out by measuring the peak height of the cleavage product at 215 nm.

HIV-1/MN = assay: Inhibition of virus replication in MT-2 cells infected with HIV-1/MN (reverse transcriptase activity in supernatant); assay type: cell-based; conditions: 4 days' incubation
From the text: In a further test it can be shown that the title compound from Example 5 protects cells normally infected by HIV from such an infection or at least slows down such an infection. For this test, MT-2 cells infected with HIV-1/MN are used. MT-2 cells have been transformed with HTLV-1 (a virus causing leukaemia) and are a continuous producer thereof; they are therefore especially sensitive to the cytopathogenic effect of HIV. MT-2 cells can be obtained via the AIDS Research and Reference Reagent Program, Division of AIDS, NIAID, NIH from Dr. Douglas Richman (see J. Biol. Chem. 263, 5870-5875 (1988) and also Science 229, 563-566 (1985)). The MT-2 cells are cultured in RPMI 1640 medium (Gibco, Scotland; RPMI comprises an amino acid mixture without glutamine) supplemented with 10% heat-inactivated foetal calf serum, glutamine and standard antibiotics. […] The titre of the HIV-1/MN virus stock solution (determined by titration onto MT-2 cells) is 4.2×10^5 TClD50/ml (TClD50=Tissue Culture Infective Dose=dose that infects 50% of the MT-2 cells). […] Prior to the test, 0.1% (v/v) [alpha-^32 P]dTTP is added to aliquots of the solution in order to establish a radioactivity of 10 μCl/ml.
After mixing, the plate is incubated for 2 h at 37° C. […] The radioactivity on the filters is measured in a Matrix Packard 96-well counter (Packard, Zurich, Switzerland). […]

[1] = Plasma levels in mice after oral administration; assay type: in vivo, female BALB/c mice; conditions: 120 mg/kg
Protocol: In order to determine its pharmacokinetics, the title compound from Example 5 is dissolved in dimethyl sulfoxide (DMSO) in a concentration of 240 mg/ml. The resulting solution is diluted 1:20 (v/v) with 20% (w/v) aqueous hydroxypropyl-β-cyclodextrin solution in order to obtain a concentration of the test compound of 12 mg/ml. The resulting solution is treated briefly with ultrasound and administered orally to female BALB/c mice (Bomholtgarden, Copenhagen, Denmark) by artificial tube feeding at a dose of 120 mg/kg. At fixed times (for example 30, 60, 90, 120 min) after administration, mice are sacrificed and the […] stored in heparinised test tubes. The blood is centrifuged (12000×g, 5 min) and the plasma removed. […] The precipitate is pelleted by centrifugation (12000×g, 5 min), and the concentration of the test compound is determined by reversed phase high performance liquid chromatography (HPLC).
The HPLC analysis of the samples obtained in accordance with the method described above is carried out on a 125×4.6 mm Nucleosil® C18 column (reversed phase material supplied by Macherey & Nagel, Duren, Germany, based on silica gel derivatised with hydrocarbon radicals having 18 carbon atoms), using a 2 cm long preliminary column containing the same column material. […] The test compound is detected by UV absorption measurement at 255 nm. […]

Compound	IC50 (HIV-1-protease)	ED90 (concentration that reduces the RT activity by 90%; 90% inhibition of virus replication) (HIV-1/MN)	plasma level ([1]; 30 min after administration)	plasma level ([1]; 90 min after administration)
COC(=O)N[C@H](C(=O)N[C@@H](Cc1ccccc1)[C@@H](O)CN(Cc1ccc(-c2nnn(C)n2)cc1)NC(=O)[C@@H](NC(=O)OC)C(C)(C)C)C(C)(C)C [1-[4-(2-methyl-2H-tetrazol-5-yl)-phenyl]-4(S)-hydroxy-5(S)-2,5-bis[N-(N-methoxycarbonyl-(L)-tert-leucyl)amino]-6-phenyl-2-axahexane]	51 nM	–	–	–
COC(=O)N[C@H](C(=O)N[C@@H](Cc1ccccc1)[C@@H](O)CN(Cc1ccc(-c2nccs2)cc1)NC(=O)[C@@H](NC(=O)OC)C(C)(C)C)C(C)(C)C [1-[4-(thiazol-2-yl)-phenyl]-4(S)-hydroxy-5(S)-2,5-bis[N-(N-methoxycarbonyl-(L)-tert-leucyl)amino]-6-phenyl-2-azahexane]	33 nM	–	–	–
COC(=O)N[C@H](C(=O)N[C@@H](Cc1ccccc1)[C@@H](O)CN(Cc1ccc(-c2ccccn2)cc1)NC(=O)[C@@H](NC(=O)OC)C(C)(C)C)C(C)(C)C [Example 5, 1-[4-(Pyridin-2-yl)-phenyl]-4(S)-hydroxy-5(S)-2,5-bis[N-(N-methoxycarbonyl-(L)-tert-leucyl)-amino]-6-phenyl-2-azahexane]	26 nM	3 nM	21.83 µM	31.76 µM
